Values quoted from earlier work in patent publication US5162307A, “Polymer bound elastase inhibitors” (Board of Trustees of the University of Kentucky, priority 1992, dated 1992).

Experiments:
[1] = in vivo
[2] = tested on: rabbits; conditions: rabbit, in vivo
[3] = tested on: guinea pigs; conditions: guinea pig, in vivo

For “poly α, β-[N-(2-hydroxyethyl)-D,L-aspartamide] [PHEA]”, the “effect on the biosynthetic mechanism of the serum proteins or of blood cells” value [1] is given as “no adverse effect”, the toxicity [1] is given as “lack toxicity” and the organ weight ([1]; iv) is given as “do not induce any significant changes”. For the same substance, the total weight gain ([1]; iv) was “do not induce any significant changes”, the “immune response (antigenicity)” value [2] was “no evidence of an immune response” and the “immune response (antigenicity)” value [3] was “no evidence of an immune response”.
